Measured values as given in BindingDB's records for doi:10.1002/cbic.201300347 (Fondazione Istituto Italiano Di Tecnologia, 2013).
Counter-ions that a name gives are not always drawn.

Target: T1, Fatty-acid amide hydrolase 1 [33-574] (Rattus norvegicus, UniProt P97612)
T1 construct: 33-574
T1 sequence (P97612 whole entry): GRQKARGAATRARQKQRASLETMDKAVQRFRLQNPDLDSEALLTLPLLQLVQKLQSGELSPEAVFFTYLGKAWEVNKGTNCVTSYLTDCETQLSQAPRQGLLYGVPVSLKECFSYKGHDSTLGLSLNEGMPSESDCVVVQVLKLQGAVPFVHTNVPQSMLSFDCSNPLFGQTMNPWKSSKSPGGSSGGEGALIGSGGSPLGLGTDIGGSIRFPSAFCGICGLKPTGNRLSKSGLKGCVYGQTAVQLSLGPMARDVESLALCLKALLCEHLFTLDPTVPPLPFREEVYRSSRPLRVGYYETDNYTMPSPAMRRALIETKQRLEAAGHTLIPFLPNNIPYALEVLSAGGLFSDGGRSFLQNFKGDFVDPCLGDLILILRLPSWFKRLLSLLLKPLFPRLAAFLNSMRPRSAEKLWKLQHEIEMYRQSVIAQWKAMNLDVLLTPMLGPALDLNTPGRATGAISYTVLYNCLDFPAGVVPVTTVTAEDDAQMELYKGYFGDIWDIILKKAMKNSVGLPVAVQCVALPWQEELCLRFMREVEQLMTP

| Compound | IC50 |
| --- | --- |
| O=C(c1ccc(Cl)cc1)C(F)(F)F [1‐(4‐chlorophenyl)‐2,2,2‐trifluoroethanone (Hit 3)] | 26 µM |
| O=C(O)c1cccnc1Nc1cccc(C(F)(F)F)c1 [NSC_4488] | 162 µM |
| OC1(C(F)(F)F)CC(c2ccccc2)N=N1 (stereo unspecified) [5‐phenyl‐3‐(trifluoromethyl)‐2,4‐dihydropyrazol‐3‐ ol (Hit 6)] | 32 µM |
| Nc1nc(F)nc2c1ncn2C1O[C@H](CO)[C@@H](O)[C@H]1O (stereo partly drawn) [(3R,4S,5R)‐2‐(6‐amino‐2‐fluoropurin‐9‐yl)‐5‐ (hydroxymethyl)oxolane‐3,4‐diol (Hit 17)] | 1130 µM |
| O=C1CCCc2c1cnc1nc(C(F)(F)F)nn21 [2‐(trifluoromethyl)‐7H,8H,9H‐[1,2,4]triazolo[1,5‐ a]quinazolin‐6‐one (Hit 2)] | 3 µM |
| Cc1ccc(OC(=O)NC2CCCCC2)cc1-c1cccc(C(N)=O)c1 [3‐(3‐carbamoylphenyl)‐4‐methylphenyl N‐ cyclohexylcarbamate (Compound 1)] | 0.06 µM |
| FC(F)(F)c1cc(-c2ccccc2)nc2ncnn12 [5‐phenyl‐7‐(trifluoromethyl)‐[1,2,4]triazolo[1,5‐ a]pyrimidine (Hit 15)] | 110 µM |
| FC(F)(F)c1ccccc1N1CCNCC1 [1‐[2‐(trifluoromethyl)phenyl]piperazine hydrochloride (Hit 1)] | 4.2 µM |
| NCc1cccc(C(F)(F)F)c1 [[3‐(trifluoromethyl)phenyl]methanamine (Hit 8)] | 270 µM |
| O=C(n1nc2ccccc2n1)C(F)(F)F [1‐(1,2,3‐benzotriazol‐2‐yl)‐2,2,2‐ trifluoroethanone (Hit 14)] | 400 µM |
| O[C@@H](c1ccccc1)C(F)(F)F [(1S)‐2,2,2‐trifluoro‐1‐phenylethanol (Hit 12)] | 563 µM |
| O=C(O)Cn1ccc(C(F)(F)F)n1 [[3‐(trifluoromethyl)pyrazol‐1‐yl]acetic acid (Hit 7)] | 147 µM |
| O=C(O)c1cc(=O)cc(C(F)(F)F)o1 [4‐oxo‐6‐(trifluoromethyl)pyran‐2‐carboxylic acid (Hit 10)] | 137 µM |
| O=C(O)C1(C(F)(F)F)CCC1 [1‐(trifluoromethyl)cyclobutane‐1‐carboxylic acid (Hit 9)] | 465 µM |
| N#CCc1cccc(C(F)(F)F)c1 [2‐[3‐(trifluoromethyl)phenyl]acetonitrile (Hit 13)] | 720 µM |
| O=C(Nc1cnc2[nH]ccc2c1)c1cccc(Cl)c1Cl [2,3‐dichloro‐N‐{1H‐pyrrolo[2,3‐b]pyridin‐5‐ yl}benzamide (Compound 2)] | 0.095 µM |
| OC(c1ccc(Cl)cc1)C(F)(F)F (stereo unspecified) [1‐(4‐chlorophenyl)‐2,2,2‐trifluoroethanol (Hit 11)] | 143 µM |
| NC(=O)c1cccc(-c2cc(OC(=O)NC3CCCCC3)ccc2C(=O)O)c1 | 4 µM |
| CS(=O)(=O)c1ccc(N)c(F)c1 [2‐fluoro‐4‐methanesulfonylaniline (Hit 4)] | 58 µM |
| Nc1cccc(C(=O)Nc2cc(=O)n(CC(F)(F)F)[nH]2)c1 [3‐amino‐N‐[5‐hydroxy‐1‐(2,2,2‐ trifluoroethyl)pyrazol‐3‐yl]benzamide (Hit 18)] | 1320 µM |
| Oc1cccc(C(F)(F)F)c1 [M‐trifluoromethylphenol (Hit 5)] | 450 µM |
